Each compound was assayed against T1, human S1P1 receptor (Homo sapiens, UniProt P21453) (assay: GTP γ35S binding assay for S1P1 activity). Conditions: activity potency from GTP γ35S binding; 5 μg membrane protein, 30 min at 25° C., test compounds 0.08 to 5,000 nM.
T1 construct: expressed in transfected cells; membranes were used
Assay type: biochemical
Protocol: Compounds were synthesized and tested for S1P1 activity using the GTP γ^35S binding assay. These compounds may be assessed for their ability to activate or block activation of the human S1P1 receptor in cells stably expressing the S1P1 receptor.
GTP γ^35S binding was measured in the medium containing (mM) HEPES 25, pH 7.4, MgCl2 10, NaCl 100, dithitothreitol 0.5, digitonin 0.003%, 0.2 nM GTP γ^35S, and 5 μg membrane protein in a volume of 150 μl. Test compounds were included in the concentration range from 0.08 to 5,000 nM unless indicated otherwise. Membranes were incubated with 100 μM 5′-adenylylimmidodiphosphate for 30 min, and subsequently with 10 μM GDP for 10 min on ice. Drug solutions and membrane were mixed, and then reactions were initiated by adding GTP γ^35S and continued for 30 min at 25° C. Reaction mixtures were filtered over Whatman GF/B filters under vacuum, and washed three times with 3 mL of ice-cold buffer (HEPES 25, pH7.4, MgCl2 10 and NaCl 100). Filters were dried and mixed with scintillant, and counted for ^35S activity using a 8-counter. Agonist-induced GTP γ^35S binding was obtained by subtracting that in the absence of agonist. Binding data were analyzed using a non-linear regression method. In case of antagonist assay, the reaction mixture contained 10 nM S1P in the presence of test antagonist at concentrations ranging from 0.08 to 5000 nM.

T1 sequence (P21453 whole entry): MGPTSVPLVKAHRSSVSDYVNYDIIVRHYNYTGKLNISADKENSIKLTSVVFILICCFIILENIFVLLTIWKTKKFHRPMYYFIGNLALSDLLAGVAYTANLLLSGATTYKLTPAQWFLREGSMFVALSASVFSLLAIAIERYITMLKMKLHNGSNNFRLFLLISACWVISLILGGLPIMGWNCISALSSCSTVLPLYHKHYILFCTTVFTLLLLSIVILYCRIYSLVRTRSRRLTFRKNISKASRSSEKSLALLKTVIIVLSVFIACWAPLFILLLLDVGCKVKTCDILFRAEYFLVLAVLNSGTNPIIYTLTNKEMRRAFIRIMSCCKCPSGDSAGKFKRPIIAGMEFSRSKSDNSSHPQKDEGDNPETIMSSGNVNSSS

In order of falling EC50:
1. CNc1ncccc1-c1noc(C(Cc2cc(C)cc(C)c2)c2ccc(Cl)nc2)n1 (stereo not drawn) [3-{5-[1-(6-chloropyridin-3-yl)-2-(3,5-dimethylphenyl)ethyl]-1,2,4-oxadiazol-3-yl}-N-methylpyridin-2-amine]  2760 nM
2. CNc1ncccc1-c1noc(C(Cc2ccccc2)c2ccc(Cl)cc2)n1 (stereo not drawn) [3-{5-[1-(4-chlorophenyl)-2-phenylethyl]-1,2,4-oxadiazol-3-yl}-N-methylpyridin-2-amine]  2400 nM
3. CNc1ncccc1-c1noc(C(Cc2ccc(C)c(C)c2)c2ccc(C(F)(F)F)cc2)n1 (stereo not drawn) [3-(5-{2-(3,4-dimethylphenyl)-1-[4-(trifluoromethyl)phenyl]ethyl}-1,2,4-oxadiazol-3-yl)-N-methylpyridin-2-amine]  2260 nM
4. CNc1ncccc1-c1noc(C(Cc2ccc(CC(C)C)cc2)c2cccc(Cl)c2)n1 (stereo not drawn) [3-{5-[1-(3-chlorophenyl)-2-(4-isobutylphenyl)ethyl]-1,2,4-oxadiazol-3-yl}-N-methylpyridin-2-amine]  2090 nM
5. CNc1ncccc1-c1noc(C(Cc2ccc(Cl)c(Cl)c2)c2ccc(Cl)cc2)n1 (stereo not drawn) [3-{5-[1-(4-chlorophenyl)-2-(3,4-dichlorophenyl)ethyl]-1,2,4-oxadiazol-3-yl}-N-methylpyridin-2-amine]  2020 nM
6. CNc1ncccc1-c1noc(C(CC2CCCC2)c2cccc(Cl)c2)n1 (stereo not drawn) [3-{5-[1-(3-chlorophenyl)-2-cyclopentylethyl]-1,2,4-oxadiazol-3-yl}-N-methylpyridin-2-amine]  1860 nM
7. CNc1ncccc1-c1noc(C(Cc2ccc(C)c(C)c2)c2ccc(OC)cc2)n1 (stereo not drawn) [3-{5-[2-(3,4-dimethylphenyl)-1-(4-methoxyphenyl)ethyl]-1,2,4-oxadiazol-3-yl}-N-methylpyridin-2-amine]  1330 nM
8. CNc1ncccc1-c1noc(C(Cc2ccccc2)c2ccccc2)n1 (stereo not drawn) [Compound 24, 3-(5-(1,2-diphenylethyl)-1,2,4-oxadiazol-3-yl)-N-methylpyridin-2-amine]  1240 nM
9. CNc1ncccc1-c1noc(C(Cc2ccc(C)cc2)c2cccs2)n1 (stereo not drawn) [Compound 26, N-methyl-3-(5-(1-(thiophen-2-yl)-2-(p-tolyl)ethyl)-1,2,4-oxadiazol-3-yl)pyridin-2-amine]  928 nM
10. CNc1ncccc1-c1noc(C(Cc2ccc(C)c(C)c2)c2ccccc2)n1 (stereo not drawn) [3-{5-[2-(3,4-dimethylphenyl)-1-phenylethyl]-1,2,4-oxadiazol-3-yl}-N-methylpyridin-2-amine]  912 nM
11. CNc1ncccc1-c1noc(C(Cc2ccc(C)cc2)c2ccsc2)n1 (stereo not drawn) [Compound 1, N-methyl-3-(5-(1-(thiophen-3-yl)-2-(p-tolyl)ethyl)-1,2,4-oxadiazol-3-yl)pyridin-2-amine]  533 nM
12. CNc1ncccc1-c1noc(C(Cc2ccc(C)c(C)c2)c2cccs2)n1 (stereo not drawn) [Compound 27, 3-(5-(2-(3,4-dimethylphenyl)-1-(thiophen-2-yl)ethyl)-1,2,4-oxadiazol-3-yl)-N-methylpyridin-2-amine]  524 nM
13. CNc1ncccc1-c1noc(C(Cc2ccc(C)c(C)c2)c2ccc(Cl)cc2)n1 (stereo not drawn) [Compound 10, 3-{5-[2-(3,4-dimethylphenyl)-1-(4-chlorophenyl)ethyl]-1,2,4-oxadiazol-3-yl}-N-methylpyridin-2-amine]  470 nM
14. CNc1ncccc1-c1noc(C(CC2CCCCC2)c2cccc(Cl)c2)n1 (stereo not drawn) [3-{5-[1-(3-chlorophenyl)-2-cyclohexylethyl]-1,2,4-oxadiazol-3-yl}-N-methylpyridin-2-amine]  348 nM
15. CNc1ncccc1-c1noc(C(Cc2ccc(C)c(C)c2)c2ccsc2)n1 (stereo not drawn) [Compound 29, 3-(5-(2-(3,4-dimethylphenyl)-1-(thiophen-3-yl)ethyl)-1,2,4-oxadiazol-3-yl)-N-methylpyridin-2-amine]  296 nM
16. CNc1ncccc1-c1noc(C(Cc2ccc(C)c(C)c2)c2ccc(Cl)nc2)n1 (stereo not drawn) [3-{5-[1-(6-chloropyridin-3-yl)-2-(3,4-dimethylphenyl)ethyl]-1,2,4-oxadiazol-3-yl}-N-methylpyridin-2-amine]  274 nM
17. CNc1ncccc1-c1noc(C(Cc2ccc(C)c(C)c2)c2cccc(C(F)(F)F)c2)n1 (stereo not drawn) [3-(5-{2-(3,4-dimethylphenyl)-1-[3-(trifluoromethyl)phenyl]ethyl}-1,2,4-oxadiazol-3-yl)-N-methylpyridin-2-amine]  167 nM
18. CNc1ncccc1-c1noc(C(Cc2ccc(C)c(C)c2)c2cc(C)cc(C)c2)n1 (stereo not drawn) [Compound 25, 3-(5-(2-(3,4-dimethylphenyl)-1-(3,5-dimethylphenyl)ethyl)-1,2,4-oxadiazol-3-yl)-N-methylpyridin-2-amine]  161 nM
19. CNc1ncccc1-c1noc(C(Cc2cccc(C)c2)c2cccc(Cl)c2)n1 (stereo not drawn) [3-{5-[1-(3-chlorophenyl)-2-(3-methylphenyl)ethyl]-1,2,4-oxadiazol-3-yl}-N-methylpyridin-2-amine]  125 nM
20. CNc1ncccc1-c1noc(C(Cc2ccccc2)c2cccc(Cl)c2)n1 (stereo not drawn) [3-{5-[1-(3-chlorophenyl)-2-phenylethyl]-1,2,4-oxadiazol-3-yl}-N-methylpyridin-2-amine]  112 nM
21. CNc1ncccc1-c1noc(C(Cc2ccc(C)c(C)c2)c2cccc([N+](=O)[O-])c2)n1 (stereo not drawn) [3-{5-[2-(3,4-dimethylphenyl)-1-(3-nitrophenyl)ethyl]-1,2,4-oxadiazol-3-yl}-N-methylpyridin-2-amine]  86.4 nM
22. CNc1ncccc1-c1noc(C(Cc2ccc(C)cc2)c2cccc(Cl)c2)n1 (stereo not drawn) [3-{5-[1-(3-chlorophenyl)-2-(4-methylphenyl)ethyl]-1,2,4-oxadiazol-3-yl}-N-methylpyridin-2-amine]  78.3 nM
23. CNc1ncccc1-c1noc(C(Cc2ccc(C)c(C)c2)c2cccc(OC)c2)n1 (stereo not drawn) [3-{5-[2-(3,4-dimethylphenyl)-1-(3-methoxyphenyl)ethyl]-1,2,4-oxadiazol-3-yl}-N-methylpyridin-2-amine]  77.6 nM
24. CNc1ncccc1-c1noc(C(Cc2ccc(C)c(C)c2)c2cccc(Cl)c2)n1 (stereo not drawn) [Compound 2, 3-{5-[2-(3,4-dimethylphenyl)-1-(3-chlorophenyl)ethyl]-1,2,4-oxadiazol-3-yl}-N-methylpyridin-2-amine]  66.4 nM
25. CCc1cccc(C(Cc2ccc(C)c(C)c2)c2nc(-c3cccnc3NC)no2)c1 (stereo not drawn) [3-{5-[2-(3,4-dimethylphenyl)-1-(3-ethylphenyl)ethyl]-1,2,4-oxadiazol-3-yl}-N-methylpyridin-2-amine]  61.8 nM
26. CNc1ncccc1-c1noc(C(Cc2ccc(C)c(C)c2)c2cccc(Br)c2)n1 (stereo not drawn) [Compound 3, 3-{5-[2-(3,4-dimethylphenyl)-1-(3-bromophenyl)ethyl]-1,2,4-oxadiazol-3-yl}-N-methylpyridin-2-amine]  50.6 nM
27. CNc1ncccc1-c1noc(C(Cc2ccc(C)c(C)c2)c2cccc(C)c2)n1 (stereo not drawn) [3-{5-[2-(3,4-dimethylphenyl)-1-(3-methylphenyl)ethyl]-1,2,4-oxadiazol-3-yl}-N-methylpyridin-2-amine]  50.2 nM
28. CNc1ncccc1-c1noc(C(Cc2ccc(C)c(C)c2)c2cccc(F)c2)n1 (stereo not drawn) [3-{5-[2-(3,4-dimethylphenyl)-1-(3-fluorophenyl)ethyl]-1,2,4-oxadiazol-3-yl}-N-methylpyridin-2-amine]  35.7 nM
29. CNc1ncccc1-c1noc(C(Cc2ccc(C)c(C)c2)c2cncc(Cl)c2)n1 (stereo not drawn) [3-{5-[1-(5-chloropyridin-3-yl)-2-(3,4-dimethylphenyl)ethyl]-1,2,4-oxadiazol-3-yl}-N-methylpyridin-2-amine]  14.5 nM
30. CNc1ncccc1-c1noc(C(Cc2ccc(C)c(C)c2)c2cc(F)cc(F)c2)n1 (stereo not drawn) [Compound 23, 3-(5-(1-(3,5-difluorophenyl)-2-(3,4-dimethylphenyl)ethyl)-1,2,4-oxadiazol-3-yl)-N-methylpyridin-2-amine]  12 nM

From patent US8492410B2, “Pyridine derivatives as sphingosine 1-phosphate (S1P) receptor modulators” (Allergan, Inc., priority 2010, dated 2013)
